Legend:
pH7 nSMase = target: T1, pH7 nSMase (Homo sapiens, UniProt Q92485); assay: pH7 nSMase assay in the presence of C11AG (membranes from Jurkat cells, Tris pH6.5); assay type: biochemical; conditions: pH7 nSMase versus pH8 nSMase
T1 construct: For pH7 nSMase assays, membranes from Jurkat cells (human T-cell lymphoma) were used; endogenous in cells; host or cells: Jurkat (human T-cell lymphoma) membranes, Triton X-100 eluate
T1 sequence (Q92485 19-455): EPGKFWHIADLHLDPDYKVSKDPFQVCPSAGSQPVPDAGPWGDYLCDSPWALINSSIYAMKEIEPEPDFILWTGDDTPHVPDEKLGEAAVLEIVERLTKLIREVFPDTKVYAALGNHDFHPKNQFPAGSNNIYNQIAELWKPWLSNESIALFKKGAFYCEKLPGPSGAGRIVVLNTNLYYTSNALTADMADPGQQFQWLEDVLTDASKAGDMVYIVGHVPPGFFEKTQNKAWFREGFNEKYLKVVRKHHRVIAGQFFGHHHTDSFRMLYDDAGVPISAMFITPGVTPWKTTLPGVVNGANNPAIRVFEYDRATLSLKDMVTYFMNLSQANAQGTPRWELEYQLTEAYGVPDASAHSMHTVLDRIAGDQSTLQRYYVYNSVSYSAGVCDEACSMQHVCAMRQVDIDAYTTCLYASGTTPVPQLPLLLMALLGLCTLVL
Procedure: SMase activities were determined in the presence of 0, 1, 10, 100 or 1000 μg/ml C11AG. C11AG-acetate was used as a stock solution of 10 mg/ml in water.
For pH7 nSMase assays, membranes from Jurkat cells (human T-cell lymphoma) were used.
From each preparation 5 μg of protein were used for (1) a pH7 nSMase assay (in 50 μl 50 mM Tris pH6.5, 5 mM MgCl2, 1 mM NaF, 1 mM NaVO3, 0.1% Triton X 100, 20 nCi ^14C sphingomyelin), (2) a pH8 nSMase assay (in 50 μl 50 mM Tris pH8.5, 5 mM MgCl2, 1 mM NaF, 1 mM NaVO3, 0.1% Triton X 100, 20 nCi ^14C sphingomyelin) and (3) an acidic SMase assay (in 50 μl 50 mM NaH2PO4 pH5.0, 5 mM MgCl2, 1 mM NaF, 1 mM NaVO3, 0.1% Triton X 100, 20 nCi ^14C sphingomyelin).
After 30 minutes phosphorylcholine (PCH) was extracted by the addition of 2 volumes methanol/chloroform (2/1). PCH counts were determined in an aliquot of 10 μl after separation on TLC plates (Merck 60, F254, running solvent: 0.9% NaCl/methanol/NH4OH (50/70/5, V/V/V) in a Digital Autoradiograph. PCH counts of the uninhibited reaction were set 100% enzyme activity. Each assay was done in quadruplicate.

[1] = test system: Human T-cell lymphoma cells (Jurkat); assay: Stimulation of anti-APO-1 (anti-CD95) induced apoptosis in Jurkat cells; assay type: cell-based; conditions: C11AG at 1 μg/ml, 24 hours, 37° C., FIG. 7
Procedure: Human T-cell lymphoma cells (Jurkat) were seeded in 96-well plates at a density of 10^5 cells per ml. An antibody directed against CD95 (anti-APO-1) was added at various concentrations with and without C11AG at 1 μg/ml. After incubation at 37° C. for 24 hours, cell numbers were determined afer vital staining. By Nicoleti staining it was confirmed that dead cells had died due to apoptosis. All assays were done in triplicate.

[2] = test system: cells with or lacking pH8 nSMase; assay: Sensitivity of cells to C11AG according to pH8 nSMase expression; assay type: cell-based

fold more active on pH7 nSMase than on pH8 nSMase (pH7 nSMase): 200-1000 fold
Structure (SMILES): CCCCCCCCCCC=NNC(=N)N [C11AG, 1-(undecylidene-amino)guanidine]
induction of apoptosis by anti-APO-1 [1]: stimulated induction of apoptosis
response to C11AG of cells which have both pH7 nSMase and pH8 nSMase ([2]; cells with both pH7 nSMase and pH8 nSMase): show resistance
response to C11AG of cells lacking pH8 nSMase ([2]; solid tumour cells, T cell lymphoma cells, activated or autoreactive T cells): are sensitive
